Data as given in the NIST ThermoML archive (doi:10.1016/j.jct.2007.11.001).

Assay: molar heat capacity at constant pressure
Conditions: 101.33 kPa, Crystal 2, Small (less than 1 g) adiabatic calorimetry

O=P([O-])([O-])[O-].[Cs+].[Mg+2] [caesium-magnesium monophosphate]
Conditions | molar heat capacity at constant pressure [J/K/mol]
7.22 K | 0.956
7.3 K | 0.981
7.96 K | 1.22
8 K | 1.24
8.7 K | 1.59
9.4 K | 1.98
10.09 K | 2.4
10.42 K | 2.67
11.01 K | 3.12
11.69 K | 3.64
12.4 K | 4.2
13.07 K | 4.7
13.9 K | 5.392
14.63 K | 6.03
15.35 K | 6.706
16.06 K | 7.41
16.84 K | 8.22
17.45 K | 8.872
18.81 K | 10.39
19.49 K | 11.15
20.16 K | 11.94
21.16 K | 13.14
22.91 K | 15.3
25.31 K | 18.18
27.75 K | 20.87
30.21 K | 23.48
32.69 K | 25.92
35.16 K | 28.27
37.64 K | 30.51
40.12 K | 32.64
42.6 K | 34.69
45.08 K | 36.64
47.57 K | 38.55
52.52 K | 41.99
54.99 K | 43.63
57.47 K | 45.23
59.95 K | 46.77
61.64 K | 47.78
63.99 K | 49.13
67.48 K | 51.06
71.15 K | 53
74.82 K | 54.85
78.48 K | 56.63
82.15 K | 58.35
82.7 K | 58.61
85.82 K | 60.04
85.9 K | 60.06
88.99 K | 61.45
89.49 K | 61.67
91.95 K | 62.76
94.91 K | 64.05
97.87 K | 65.34
100.82 K | 66.59
103.77 K | 67.82
106.72 K | 69.04
109.68 K | 70.27
112.63 K | 71.51
115.8 K | 72.79
118.91 K | 74.06
121.88 K | 75.27
124.84 K | 76.48
127.8 K | 77.7
130.76 K | 78.9
133.72 K | 80.09
136.69 K | 81.3
139.65 K | 82.5
142.62 K | 83.64
145.59 K | 84.81
148.56 K | 85.97
151.53 K | 87.14
154.5 K | 88.22
157.6 K | 89.38
160.43 K | 90.46
163.6 K | 91.63
166.37 K | 92.62
